Reference: ChEMBL document CHEMBL3045296, “Synthesis of aryloxyalkylamines as h5-HT1B agonists with potential analgesic activity” (Med Chem Res, 2009)
Each block holds one compound with its values, some of them ahead of it.

Tests used:
[1] = target: 5-hydroxytryptamine receptor 1D (Homo sapiens, UniProt P28221); experiment: Binding affinity to Homo sapiens (human) 5HT1D receptor by radioligand binding assay
[2] = target: 5-hydroxytryptamine receptor 1B (Homo sapiens, UniProt P28222); experiment: Binding affinity to Homo sapiens (human) 5HT1B receptor by radioligand binding assay
Mus musculus [3] = experiment: Toxicity in Mus musculus (mouse) assessed as muscle twitching at 50 mg/kg, ip; assay type: organism-based, Muscle tissue; design: dose 50 mg/kg, route intraperitoneal; settings: in vivo
Mus musculus [4] = experiment: Toxicity in Mus musculus (mouse) assessed as irritability at 50 mg/kg, ip; assay type: organism-based; design: dose 50 mg/kg, route intraperitoneal; settings: in vivo
Mus musculus [5] = experiment: Toxicity in Mus musculus (mouse) assessed as protrusion of eyes at 50 mg/kg, ip; assay type: organism-based; design: dose 50 mg/kg, route intraperitoneal; settings: in vivo
Mus musculus [6] = experiment: Toxicity in Mus musculus (mouse) assessed as difficulties in respiration at 50 mg/kg, ip; assay type: organism-based; design: dose 50 mg/kg, route intraperitoneal; settings: in vivo
Mus musculus [7] = experiment: Toxicity in Mus musculus (mouse) assessed as skeletal muscle incoordination at 50 mg/kg, ip; assay type: organism-based, Muscle tissue; design: dose 50 mg/kg, route intraperitoneal; settings: in vivo
Mus musculus [8] = experiment: Toxicity in Mus musculus (mouse) assessed as epilepsy at 50 mg/kg, ip; assay type: organism-based; design: dose 50 mg/kg, route intraperitoneal; settings: in vivo
Mus musculus [9] = experiment: Toxicity in Mus musculus (mouse) assessed as tail and hair erection at 50 mg/kg, ip; assay type: organism-based; design: dose 50 mg/kg, route intraperitoneal; settings: in vivo
Mus musculus [10] = experiment: Toxicity in Mus musculus (mouse) assessed as excitation at 50 mg/kg, ip; assay type: organism-based; design: dose 50 mg/kg, route intraperitoneal; settings: in vivo
Mus musculus [11] = experiment: Analgesic activity in Mus musculus (mouse) assessed as writhing response at 75 mg/kg, ip relative to control; assay type: functional; settings: route intraperitoneal
Mus musculus [12] = experiment: Analgesic activity in Mus musculus (mouse) assessed as writhing response at 50 mg/kg, ip relative to control; assay type: functional; settings: route intraperitoneal
Mus musculus [13] = experiment: Analgesic activity in Mus musculus (mouse) assessed as writhing response at 25 mg/kg, ip relative to control; assay type: functional; settings: route intraperitoneal
Mus musculus [14] = experiment: Toxicity in Mus musculus (mouse) assessed as tremors at 50 mg/kg, ip; assay type: organism-based; design: dose 50 mg/kg, route intraperitoneal; settings: in vivo
Mus musculus [15] = experiment: Toxicity in Mus musculus (mouse) assessed as tremors at 20 mg/kg, ip; assay type: organism-based; design: dose 20 mg/kg, route intraperitoneal; settings: in vivo
Mus musculus [16] = experiment: Toxicity in Mus musculus (mouse) assessed as irritability at 20 mg/kg, ip; assay type: organism-based; design: dose 20 mg/kg, route intraperitoneal; settings: in vivo
Mus musculus [17] = experiment: Toxicity in Mus musculus (mouse) assessed as difficulties in respiration at 20 mg/kg, ip; assay type: organism-based; design: dose 20 mg/kg, route intraperitoneal; settings: in vivo
Mus musculus [18] = experiment: Toxicity in Mus musculus (mouse) assessed as protrusion of eyes at 20 mg/kg, ip; assay type: organism-based; design: dose 20 mg/kg, route intraperitoneal; settings: in vivo
Mus musculus [19] = experiment: Toxicity in Mus musculus (mouse) assessed as skeletal muscle incoordination at 20 mg/kg, ip; assay type: organism-based, Muscle tissue; design: dose 20 mg/kg, route intraperitoneal; settings: in vivo
Mus musculus [20] = experiment: Toxicity in Mus musculus (mouse) assessed as tail and hair erection at 20 mg/kg, ip; assay type: organism-based; design: dose 20 mg/kg, route intraperitoneal; settings: in vivo
Mus musculus [21] = experiment: Toxicity in Mus musculus (mouse) assessed as epilepsy at 20 mg/kg, ip; assay type: organism-based; design: dose 20 mg/kg, route intraperitoneal; settings: in vivo
Mus musculus [22] = experiment: Toxicity in Mus musculus (mouse) assessed as excitation at 20 mg/kg, ip; assay type: organism-based; design: dose 20 mg/kg, route intraperitoneal; settings: in vivo
Mus musculus [23] = experiment: Analgesic activity in Mus musculus (mouse) assessed as writhing response at 20 mg/kg, ip relative to control; assay type: functional; settings: route intraperitoneal
Mus musculus [24] = experiment: Toxicity in Mus musculus (mouse) assessed as muscle twitching at 20 mg/kg, ip; assay type: organism-based, Muscle tissue; design: dose 20 mg/kg, route intraperitoneal; settings: in vivo
Mus musculus [25] = experiment: Analgesic activity in Mus musculus (mouse) assessed as writhing response at 100 mg/kg, ip relative to control; assay type: functional; settings: route intraperitoneal

Chain of 5-hydroxytryptamine receptor 1D (P28221 whole entry): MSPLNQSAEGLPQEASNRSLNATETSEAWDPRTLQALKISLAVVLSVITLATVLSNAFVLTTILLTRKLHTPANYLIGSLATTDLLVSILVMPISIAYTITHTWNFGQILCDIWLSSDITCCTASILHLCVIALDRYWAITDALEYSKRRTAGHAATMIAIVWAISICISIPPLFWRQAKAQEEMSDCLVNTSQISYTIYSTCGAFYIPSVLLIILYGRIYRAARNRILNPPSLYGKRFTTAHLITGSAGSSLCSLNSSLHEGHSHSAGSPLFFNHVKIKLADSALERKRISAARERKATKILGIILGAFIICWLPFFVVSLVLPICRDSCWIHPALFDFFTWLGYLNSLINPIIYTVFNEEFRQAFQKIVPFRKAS
Chain of 5-hydroxytryptamine receptor 1B (P28222 whole entry): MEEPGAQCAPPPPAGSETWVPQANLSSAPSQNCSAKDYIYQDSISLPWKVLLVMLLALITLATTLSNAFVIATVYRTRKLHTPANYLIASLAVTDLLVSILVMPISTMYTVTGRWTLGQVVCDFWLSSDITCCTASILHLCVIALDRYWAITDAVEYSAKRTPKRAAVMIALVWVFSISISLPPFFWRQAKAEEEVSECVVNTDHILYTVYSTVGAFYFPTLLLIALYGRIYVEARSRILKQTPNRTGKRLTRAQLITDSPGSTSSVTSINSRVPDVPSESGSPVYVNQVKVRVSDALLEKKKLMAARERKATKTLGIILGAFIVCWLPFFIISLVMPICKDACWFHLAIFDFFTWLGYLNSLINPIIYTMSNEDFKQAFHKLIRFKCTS

Structure (SMILES): CNC(C)COc1ccc(Br)cc1Br (racemic)
Ki [1]: 1120 nM
Ki [2]: 2320 nM

Ki [1]: 1240 nM
Ki [2]: 1250 nM
Structure (SMILES): CNCCOc1ccc(Br)cc1Br

Ki [1]: 5460 nM
Ki [2]: 912 nM
Structure (SMILES): CN1CCN([C@H](COc2cccc(Cl)c2Cl)c2ccccc2)CC1

Ki [1]: 599 nM
Ki [2]: 2480 nM
Structure (SMILES): CNC(C)COc1cccc(Cl)c1Cl (racemic)

Structure (SMILES): CNCCOc1c(Br)cccc1Br.O=C(O)C(=O)O
Activity (Mus musculus [3]): Toxic
Activity (Mus musculus [4]): Toxic
Activity (Mus musculus [5]): Toxic
Activity (Mus musculus [6]): Toxic
Activity (Mus musculus [7]): Toxic
Activity (Mus musculus [8]): Toxic
Activity (Mus musculus [9]): Toxic
Activity (Mus musculus [10]): Toxic
Activity (Mus musculus [11]): 100%
Activity (Mus musculus [12]): 62.5%
Activity (Mus musculus [13]): 25%
Activity (Mus musculus [14]): Toxic

Ki [1]: 2870 nM
Ki [2]: 4200 nM
Structure (SMILES): CNC(C)COc1ccc(Cl)cc1Cl (racemic)

Ki [1]: 2030 nM
Ki [2]: 36.4 nM
Structure (SMILES): CNCCOc1cccc(Cl)c1Cl

Ki [1]: > 10000 nM
Ki [2]: 1460 nM
Structure (SMILES): CN1CCN(CCOc2ccc(Br)cc2Br)CC1

Ki [1]: 6290 nM
Ki [2]: > 10000 nM
Structure (SMILES): CN[C@@H](COc1cccc(Cl)c1Cl)c1ccccc1

Ki [1]: 393 nM
Ki [2]: 752 nM
Structure (SMILES): CNC(C)COc1cccc(Oc2ccccc2)c1 (racemic)

Structure (SMILES): CNC(C)COc1cc(Cl)ccc1Cl.O=C(O)C(=O)O (racemic)
Activity (Mus musculus [15]): Toxic
Activity (Mus musculus [16]): Toxic
Activity (Mus musculus [17]): Toxic
Activity (Mus musculus [18]): Toxic
Activity (Mus musculus [19]): Toxic
Activity (Mus musculus [20]): Toxic
Activity (Mus musculus [21]): Toxic
Activity (Mus musculus [22]): Toxic
Activity (Mus musculus [23]): 66%
Ki [1]: 5400 nM
Ki [2]: 6690 nM
Activity (Mus musculus [24]): Toxic

Structure (SMILES): CC(=O)Oc1ccccc1C(=O)O [ASPIRIN]
Activity (Mus musculus [25]): 100%

Ki [1]: 975 nM
Ki [2]: 2750 nM
Structure (SMILES): CNCCOc1ccc(Cl)cc1Cl

Structure (SMILES): CNC(C)COc1c(Br)cccc1Br.O=C(O)C(=O)O (racemic)
Activity (Mus musculus [3]): Toxic
Activity (Mus musculus [4]): Toxic
Activity (Mus musculus [5]): Toxic
Activity (Mus musculus [6]): Toxic
Activity (Mus musculus [7]): Toxic
Activity (Mus musculus [8]): Toxic
Activity (Mus musculus [9]): Toxic
Activity (Mus musculus [10]): Toxic
Activity (Mus musculus [11]): 100%
Activity (Mus musculus [12]): 75%
Activity (Mus musculus [13]): 0%
Ki [1]: 225 nM
Ki [2]: 71.5 nM
Activity (Mus musculus [14]): Toxic

Ki [1]: 7790 nM
Structure (SMILES): CN[C@H](COc1cccc(Cl)c1Cl)c1ccccc1

Ki [1]: 3820 nM
Ki [2]: 3640 nM
Structure (SMILES): CNCCOc1cc(Cl)ccc1Cl

Ki [1]: 1490 nM
Ki [2]: 833 nM
Structure (SMILES): CN1CCN([C@@H](COc2cccc(Cl)c2Cl)c2ccccc2)CC1
